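Method: 48-hour compound exposure of cells in 96-well plates, five concentrations, linear interpolation of endpoints. TGI is the concentration that stops growth completely.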
Columns and labels:
Assay in all cases: growth of human tumour cells (NCI), 48 h
A498 renal = system: A498 renal
HCT-116 colon = system: HCT-116 colon
OVCAR-8 ovarian = system: OVCAR-8 ovarian
SK-MEL-28 melanoma = system: SK-MEL-28 melanoma
NCI-H460 lung = system: NCI-H460 lung
U251 CNS = system: U251 CNS
CAKI-1 renal = system: CAKI-1 renal
SK-OV-3 ovarian = system: SK-OV-3 ovarian
HOP-62 NSCLC = system: HOP-62 NSCLC
PC-3 prostate = system: PC-3 prostate
TK-10 renal = system: TK-10 renal
MOLT-4 leukemia = system: MOLT-4 leukemia
HT29 colon = system: HT29 colon

| Structure (SMILES) | TGI (A498 renal) | TGI (HCT-116 colon) | TGI (OVCAR-8 ovarian) | TGI (SK-MEL-28 melanoma) | TGI (NCI-H460 lung) | TGI (U251 CNS) | TGI (CAKI-1 renal) | TGI (SK-OV-3 ovarian) | TGI (HOP-62 NSCLC) | TGI (PC-3 prostate) | TGI (TK-10 renal) | TGI (MOLT-4 leukemia) | TGI (HT29 colon) |
| --- | --- | --- | --- | --- | --- | --- | --- | --- | --- | --- | --- | --- | --- |
| CCSc1nc(=S)n(-c2ccccc2)c(C)c1C(C)=O | > 100 µM | > 100 µM | > 100 µM | > 100 µM | > 100 µM | > 100 µM | > 100 µM | > 100 µM | > 100 µM | > 100 µM | > 100 µM | > 100 µM | > 100 µM |
| c1ccc(Nc2nn3c(CCCCCCCCc4nnc5sc(Nc6ccccc6)nn45)nnc3s2)cc1 | > 100 µM | > 100 µM | > 100 µM | > 100 µM | > 100 µM | > 100 µM | > 100 µM | > 100 µM | > 100 µM | > 100 µM | > 100 µM | 41.7 µM | 77.5 µM |
| COC(=O)c1c(C)cccc1C1CN=NC12Cc1cc(C)cc(C)c1C2=O (centres undefined) | 74.9 µM | > 100 µM | > 100 µM | > 100 µM | > 100 µM | > 100 µM | > 100 µM | > 100 µM | > 100 µM | > 100 µM | 98.3 µM | > 100 µM | > 100 µM |
| CC1SC2(CCCCC2)N(NC(=O)CSc2nc3ccc(Cl)cc3c(=O)n2-c2ccccc2)C1=O (centres undefined) | 81.2 µM | 27.2 µM | 59.1 µM | 88.4 µM | 42.7 µM | 31.6 µM | > 100 µM | > 100 µM | 34.3 µM | 56.1 µM | > 100 µM | 47.2 µM | 33 µM |
| C/C=C(\C)C(=O)O[C@@H]1CC(C)(C)CC2C3=CCC4[C@]56CC[C@](O)(OC5)C(C)(C)C6CC[C@@]4(C)C3(C)CC[C@]21C(=O)O (some centres undefined) | > 100 µM | > 100 µM | > 100 µM | > 100 µM | > 100 µM | > 100 µM | > 100 µM | > 100 µM | > 100 µM | > 100 µM | > 100 µM | > 100 µM | > 100 µM |
| CN(CCCNC(=O)c1nn(C)c2c1Cc1ccccc1-2)CCCNC(=O)c1nn(C)c2c1Cc1ccccc1-2 | 31.7 µM | 30.2 µM | 46 µM | 38.2 µM | 37.6 µM | 26.2 µM | 35.5 µM | 34.1 µM | 26.8 µM | 34.1 µM | 36.2 µM | 24.4 µM | 31.6 µM |
| NCCCNOCCCN | > 100 µM | > 100 µM | > 100 µM | > 100 µM | > 100 µM | > 100 µM | > 100 µM | > 100 µM | > 100 µM | > 100 µM | > 100 µM | > 100 µM | > 100 µM |
| NC(=O)CC(N)C(=O)NC(Cc1ccccc1)C(=O)NC(Cc1ccccc1)NC(=O)C(Cc1c[nH]c2ccccc12)C(=O)O (centres undefined) | > 100 µM | > 100 µM | > 100 µM | > 100 µM | > 100 µM | > 100 µM | > 100 µM | > 100 µM | > 100 µM | > 100 µM | > 100 µM | > 100 µM | > 100 µM |
| CCOC(=O)CCN1C(=O)C(=O)N(c2ccc(OC)cc2)C1=S | > 100 µM | > 100 µM | > 100 µM | > 100 µM | > 100 µM | > 100 µM | > 100 µM | > 100 µM | > 100 µM | > 100 µM | > 100 µM | > 100 µM | > 100 µM |
| N/C(=N\Nc1ccc(Cl)cc1)c1cnccn1 | > 100 µM | > 100 µM | > 100 µM | > 100 µM | > 100 µM | > 100 µM | > 100 µM | > 100 µM | > 100 µM | > 100 µM | > 100 µM | > 100 µM | > 100 µM |
| CCCCSC1=N/C(=C\c2ccc(N(C)C)cc2)C(=O)N1 | 40.4 µM | 74.9 µM | > 100 µM | > 100 µM | 51.6 µM | 48.2 µM | > 100 µM | > 100 µM | > 100 µM | 19.3 µM | > 100 µM | > 100 µM | 36.8 µM |
| CCC(CC)(CO)CNc1cc(Cl)nc(N)n1 | > 100 µM | > 100 µM | > 100 µM | > 100 µM | > 100 µM | > 100 µM | > 100 µM | > 100 µM | > 100 µM | > 100 µM | > 100 µM | > 100 µM | > 100 µM |
| Cc1ccc(S(=O)(=O)N/N=C2\CC3CC4CCC2C4C3)cc1 (centres undefined) | > 100 µM | > 100 µM | > 100 µM | > 100 µM | > 100 µM | > 100 µM | > 100 µM | > 100 µM | > 100 µM | > 100 µM | > 100 µM | > 100 µM | > 100 µM |
| COC(=O)[C@]1(c2cc3ccccc3[nH]2)CC2CN(C(=O)OCc3ccccc3)C1CC2=O (some centres undefined) | 42.9 µM | > 100 µM | > 100 µM | > 100 µM | 77.6 µM | 34.1 µM | > 100 µM | > 100 µM | > 100 µM | 39 µM | > 100 µM | 32.6 µM | 31.7 µM |
| Nn1c(=O)[nH]c2ncn(Cc3ccccc3)c2c1=O | > 100 µM | > 100 µM | > 100 µM | > 100 µM | > 100 µM | > 100 µM | > 100 µM | > 100 µM | > 100 µM | > 100 µM | > 100 µM | > 100 µM | > 100 µM |
| COc1cccc2cc(C(=O)Nc3ccccc3)c(=N)oc12 | > 100 µM | > 100 µM | > 100 µM | > 100 µM | > 100 µM | > 100 µM | > 100 µM | > 100 µM | > 100 µM | > 100 µM | > 100 µM | > 100 µM | > 100 µM |
| CCOC(=O)C(=CNC(=S)N=Nc1c(O)[nH]c2ccccc12)C(=O)OCC | > 100 µM | > 100 µM | > 100 µM | > 100 µM | > 100 µM | > 100 µM | > 100 µM | > 100 µM | > 100 µM | > 100 µM | > 100 µM | > 100 µM | > 100 µM |
| CCCCc1ccc(Nc2nc(Cl)c3ccn(C4CC(Oc5ccc(C)cc5)C(COc5ccc(C)cc5)O4)c3n2)cc1 (centres undefined) | > 46.4 µM | > 46.4 µM | > 46.4 µM | > 100 µM | > 31.6 µM | > 46.4 µM | > 46.4 µM | > 46.4 µM | > 100 µM | > 100 µM | 43.4 µM | > 46.4 µM | > 46.4 µM |

From PubChem BioAssay (NCI)
